Assay: Human HepG2 cell viability assay in 384 well format
Type: toxicity, cell-based
Parameters: dose 125 nL, time 70.5 hour; concentration not given beside the values
Conditions: HepG2 cells, read-out: Inhibition

SMILES	cytotoxicity at 70.5 h [%]
CCn1cnnc1CN(C)Cc1c[nH]nc1-c1ccc(F)cc1	-1.22
CC(C)Cc1nc(CO)n(-c2ccc3c(c2)OCCO3)n1	1.83
CC(NC(=O)c1cc2n(n1)CCCN(C(C)C)C2)c1cn2ccsc2n1 (stereo not drawn)	-16.5
CC(C)SCC(=O)NCc1cc2n(n1)CCCN(C1CCCCC1)C2	25.3
CN(CC(=O)N1CCOCC(CO)C1)Cc1ccccn1 (stereo not drawn)	-12.5
CCc1nc2c(c(NC3CC3)n1)CCN(C(=O)Cc1nonc1C)CC2	-8.76
Cn1ccnc1-c1ccc(NCCC2COc3ccccc3O2)nn1 (stereo not drawn)	-4.08
CSCC(=O)N1CCCC(CCC(=O)N(C)CCc2ccccn2)C1 (stereo not drawn)	9.62
CCc1nnc(CN(CC)C(=O)CCc2scnc2C)o1	-2.72
COc1ccc2c(c1)OCC(Cc1ccc(C)nc1N)C2 (stereo not drawn)	13.9
CN(Cc1ncc[nH]1)CC1CCOc2ccccc2C1 (stereo not drawn)	2.48
COc1ccc(F)c(CN2CCCC(O)(CNCc3ncc[nH]3)C2=O)c1 (stereo not drawn)	-5.99
c1ccc(COC2CCN(Cc3cc4n(n3)CCCNC4)CC2)nc1	-18
CCc1oc(C(=O)NCCc2nc(C(=O)O)cs2)cc1CN1CCCC1	-3.56
Cc1ccc(C#N)c(N2CC(C)(C)[C@@](C)(O)C2)n1	-6.73
COCCN(C)C[C@@H]1CN(C(=O)c2ccc(=O)n(C)c2)C[C@@H]1CO	-3.56
O=S(=O)(NCc1ccccc1)N(Cc1ccccn1)CC1CCCO1 (stereo not drawn)	-2.95
Cc1n[nH]c(C)c1CC(=O)N1CCCN(C)C2(CCN(C)CC2)C1	23.3
Cc1n[nH]c(C)c1Sc1ccccc1NC(=O)N1CCOCC1	-2.37
CCn1c(N)nc2cc(C(=O)N3CC(c4ccccn4)C3)cnc21	-5.92
COc1cc(NCc2ccccc2-n2cncn2)nc(N)n1	-6.05
CN(C)CCCn1ccc(-c2cccc(-c3cncnc3)c2)n1	-9.25
Cn1cc(Cl)cc1C(=O)N1CCC2(CCCN(CC3CC3)C2=O)C1 (stereo not drawn)	24.1

SMILES	cytotoxicity at 70.5 h [%]
CCc1noc(CN(CC)C(=O)C2CC(=O)N(Cc3ccncc3)C2)n1 (stereo not drawn)	35.2
CC(C)c1cc(N2CCC[C@H](N)C2)n2nccc2n1	-4.66
Cc1ccc(C)c(OCc2cc(C(=O)N(C)Cc3cnn(C)c3)no2)c1	-8.7
CC(c1ccon1)N(C)C(=O)C1CCN(C(=O)C2CCC2)CC1 (stereo not drawn)	25.3
COc1cc(C(=O)N2Cc3cnc(C(C)(C)C)nc3C2)ccn1	-2.74
Cc1nc(N2CCOc3ccc(CO)cc3C2)c2nc(C)oc2n1	-1.34
O=C(NCCSc1cnn[nH]1)c1c[nH]nc1C1CCCCC1	1.5
COc1cccc(CN2CC3(CCNCC3)CCC2=O)c1OC	0.619
O=C(c1cncc(NCC2COc3ccccc3C2)n1)N1CCCC1 (stereo not drawn)	14.9
CCn1ncnc1C1CC(=O)NCc2nc(N3CCCC3)sc21 (stereo not drawn)	-21.6
Cc1ccc(OC2(C(=O)O)CCN(C(=O)c3cc(C)oc3C)CC2)cn1	4.69
CC(c1ccc(F)cc1)n1ccnc1-c1cc2n(n1)CCCNC2 (stereo not drawn)	-6.66
CSCCC1c2nc[nH]c2CCN1Cc1[nH]c2ccc(F)cc2c1C (stereo not drawn)	10.9
CN(Cc1csc(-c2cccs2)n1)CC(O)CO (stereo not drawn)	18.7
COCCCN1CCC(c2nc3c([nH]2)CC(C)(C)CNC3=O)C1 (stereo not drawn)	-5.24
Cc1c(C(=O)NCC2CCN(Cc3ccco3)C2)[nH]c2ccccc12 (stereo not drawn)	-5.18
CSc1ccccc1C(=O)N1C[C@H]2CC[C@@H]1CN(C(=O)C1CCC1)C2	-4.19
COc1ccc(OCc2nc(C(=O)N3CCC(NC(C)=O)C3)co2)cc1 (stereo not drawn)	-1.19
Cc1nccn1-c1ccc(NC(=O)C2CCCN2Cc2c[nH]cn2)cc1 (stereo not drawn)	14.9
O=C(NCCc1[nH]nc2c1CCCC2)C1CCCN(Cc2ccco2)C1 (stereo not drawn)	-2.55
CN(C)C[C@@H]1CN(C(=O)CCC2CCCC2)C[C@@H]1CO	20.2
CC(C)CN1CCc2[nH]cnc2C12CCN(C(=O)c1cc[nH]n1)CC2	-5.86
Cc1ncsc1C(=O)N1CCCC(CO)(CC2CC2)C1 (stereo not drawn)	-7.6

SMILES	cytotoxicity at 70.5 h [%]
Cc1ccnc(C(Nc2nccc(-c3ccc(C)nc3C)n2)C2CC2)c1 (stereo not drawn)	-6.77
COc1cccc(OC2CN(C(=O)c3ccnc(OC)c3)C2)c1	-21
CC(NCc1cc(O)c2cccc(F)c2n1)c1ccccc1O (stereo not drawn)	-10.4
O=C1CCC2(CCN(Cc3ccc(F)cc3Cl)CC2)CN1CCO	12.9
C[C@@H]1CN(c2cc(N3CCC(O)CC3)ncn2)C[C@@]1(O)C1CCC1	35.1
Cc1cccnc1N1CCN(Cc2cc(O)c3cccc(F)c3n2)CC1	-0.745
CCN1CCC(CNc2nccc(C)n2)(N(C)C)CC1	-3.2
CSCCC1c2nc[nH]c2CCN1Cc1cncn1C (stereo not drawn)	33.9
CN(Cc1csc(-c2cccs2)n1)Cc1ncccc1C(=O)O	-12.2
CN(CCCc1nccn1C)C(=O)C1COc2ccccc2C1 (stereo not drawn)	-2.53
CN(CCN1CCCCCC1)Cc1cnc(N)nc1	-6
COc1ccc(Cc2ncc3c(n2)CN(C(=O)C(C)(C)OC)C3)cc1	-6.62
COC1CCN(c2cc(C(C)C)nc3ccnn23)C1 (stereo not drawn)	5.73
Cc1cc(CNC(=O)c2cn(CCC3CCCCN3)nn2)on1 (stereo not drawn)	-5.72
COCc1ccc(C(=O)N2CCC(Oc3ccccc3)(C(=O)O)CC2)o1	17.3
OCCNc1cc(N2CCC(n3cc(C4CCCC4)nn3)CC2)ncn1	-10.7
Cc1c(C(=O)NCCC2CN(C)CCO2)n(C)c2c(C)cccc12 (stereo not drawn)	-27
NC(=O)CCN1CCc2onc(-c3ccccc3F)c2C1	-11.6
CCN(Cc1noc(C)n1)C(=O)C(c1ccc(C)cc1)N(C)C (stereo not drawn)	-0.785
CCSCCNC(=O)c1ccc(S(=O)(=O)N2C[C@@H]3C[C@H]2CN3)cc1	-4.95
Cc1nc(N2CCOc3ccc(CO)cc3C2)c2c(C)noc2n1	-2.39
CCCN1CC2(CCN(C)CC2)CC1C(=O)NCCn1cc(C)cn1 (stereo not drawn)	-4.52
CCN(C)c1ccc(C(=O)NCCCc2ccccn2)cn1	-4.13

SMILES	cytotoxicity at 70.5 h [%]
Cc1oc(-c2cccc(F)c2F)nc1CN(CCO)C(C)C	-8.53
c1ccc2c(c1)CCN(c1nc(-c3ccncc3)nc3c1CCNC3)C2	23.9
Cc1nc2cc(C(=O)N3C[C@@H](C(=O)O)[C@H](c4ccncc4)C3)ccc2[nH]1	-3.63
Cc1nc[nH]c1-c1nccn1CCCN(C)C	6.24
CS(=O)(=O)CC(=O)N(CCN1CCOCC1)Cc1ccco1	22.7
COc1cccc(C2CCN2C(=O)c2cnccn2)c1 (stereo not drawn)	-2.61
CCCN1C[C@H]2CC[C@@H]1CN(Cc1ccc(-n3cccn3)cc1)C2	23.7
O=C(C1CNCCN1C(=O)CCc1cccnc1)N1CCOCC1 (stereo not drawn)	3.27
CCCNc1ncc(CN2CCC3(CC2)CNC(=O)C3)cn1	12.6
Cc1nc(NCc2scnc2-c2ccccc2)cc(C2CCNCC2)n1	-6.26
O=C1NCC2(CCCN(C(=O)c3ccc4c(c3)CCCO4)CC2)O1 (stereo not drawn)	4.55
CC(C)C(NC(N)=O)C(=O)N1CCN(c2ccccc2Cl)C(=O)C1 (stereo not drawn)	-9.59
Cc1cccc(C(C(=O)N(C)Cc2ccon2)N(C)C)c1 (stereo not drawn)	-0.0384
CCc1cc(CN(C)C(=O)c2cnon2)on1	-2.96
CC(=O)c1ccn(CC(=O)Nc2nn(CC3CC3)c3ccccc23)n1	-10.7
COCCCNCc1cc(O)c2cc(C)cc(C)c2n1	-5.24
COc1cccc(CN2CCN(CC(C)C)C(=O)C2C)c1O (stereo not drawn)	0.611
Cc1nc(N(C)C2CCCCC2)ncc1C(C)NC(=O)c1cscn1 (stereo not drawn)	1.66
Cc1ccnc(NCCSc2nccn2C)n1	-5.33
CC(Cn1cncn1)NC1CCN(Cc2cccc(O)c2)CC1 (stereo not drawn)	-2.81
COCCN(C)C[C@@H]1CN(Cc2ccnc3ccccc23)C[C@@H]1CO	-16.1
COc1ccc(C(=O)C2CCCN(c3cc(C#N)ccn3)C2)cc1OC (stereo not drawn)	-5.09
CN(C)CCN1CC(C(=O)N(C)Cc2cc3cc(F)ccc3[nH]2)CC1=O (stereo not drawn)	-7.58

SMILES	cytotoxicity at 70.5 h [%]
O=C1N(C2CCCCC2)CCCC12CCN(S(=O)(=O)c1cccnc1)C2 (stereo not drawn)	-5.02
O=C(C1CC(=O)N(C2CC2)C1)N1CCN(CCn2cccc2)CC1 (stereo not drawn)	-1.53
COCC(=O)NCc1cccnc1-n1cnc2ccccc21	-0.396
Cc1nc[nH]c1CN1CCCn2nc(CN3CCC(F)(F)CC3)cc2C1	-9.44
COC(=O)C(C)NCc1ccc2[nH]c(C)c(C)c2c1 (stereo not drawn)	-0.287
CCC(NC1CSCCSC1)c1ccc(S(C)(=O)=O)cc1 (stereo not drawn)	-14.2
Cc1ccc(CN2CCN(Cc3ccc(N(C)C)nc3)CC2=O)cc1C	-1.36
O=C(NCCc1nc(C2CC2)no1)[C@H]1CNC[C@H](C(=O)N2CCCC2)C1	-1.74
CSc1cccc(CN(C)C(=O)c2ccc(C3CCCNC3)cc2)c1 (stereo not drawn)	-7.25
CCOC(=O)C1(Cc2ccccc2)CCCN(Cc2nccn2CC)C1 (stereo not drawn)	-0.0866
OC1(CN2CCCC2)COCCN(c2cc(C(F)(F)F)ccn2)C1 (stereo not drawn)	-7.83
Cc1ccc(F)cc1CC(=O)N(CCN1CCOCC1)Cc1ccco1	-6.95
Cc1ccc(NC(=O)CNC(C)Cc2ccsc2)cc1F (stereo not drawn)	-8.47
CN1CCCC1CCn1ccnc1-c1nc(-c2ccccc2)no1 (stereo not drawn)	16.5
CCn1cc(CN2CCCN(C3Cc4ccccc4C3)CC2)c(C)n1	24.3
O=C(O)c1cccc(C2CCCN(S(=O)(=O)N3CCOCC3)C2)c1 (stereo not drawn)	-7.39
Cc1ccc(CN2CCN(c3cncc(N(C)C)n3)CC2=O)cc1C	-7.53
CNC(=O)c1nc(CN2CCOC(CCCC(C)C)C2)no1 (stereo not drawn)	-16.2
COc1ccc(OC)c(C2CCN(C(=O)C3CCS(=O)(=O)CC3)C2)c1 (stereo not drawn)	-7.16
O=C(N[C@H]1COC[C@@H]1N1CCCC1)c1csc(-c2cccs2)n1	-10.9
Cn1ccc(C2CCCCN2C(=O)c2cccc(Cn3cccn3)c2)n1 (stereo not drawn)	8.89

Reference: ChEMBL document CHEMBL3507680, “University of Dundee, Gates Library screen for HepG2 cell viability”
